ChEMBL document CHEMBL1149054, “Isolation and structure of harzianum A: a new trichothecene from Trichoderma harzianum” (J Nat Prod, 1994)
Calls of active or inactive are those of the source. No cut-off for these calls is given here.

Legend:
[1] = Cytotoxicity against BHK cells upto 1 ug/ml; assay type: cell-based, Mesocricetus auratus; conditions: hamster
Escherichia coli = test: Antimicrobial activity against Escherichia coli at 1 mg/ml; assay type: functional, organism-based
Micrococcus luteus = test: Antimicrobial activity against Micrococcus luteus at 1 mg/ml; assay type: functional, organism-based
Staphylococcus aureus = test: Antimicrobial activity against Staphylococcus aureus at 1 mg/ml; assay type: functional, organism-based

## CC1=C[C@H]2O[C@@H]3C[C@@H](OC(=O)\C=C/C=C/C=C/C(=O)O)[C@](C)([C@@]2(C)CC1)[C@]31CO1 [HARZIANUM A]
[1]
  Activity: Non-toxic
Escherichia coli
  Activity: inactive
Micrococcus luteus
  Activity: inactive
Staphylococcus aureus
  Activity: inactive
